Assays:
[1] = H2O2-induced hyaluronic acid fragmentation (agarose gel, Stains-All); details: HA 1 mg/ml, pretreated 1 hour at 1 or 10 μM, then 1 mM H2O2 for 4 hours; preliminary data
Method: Commercial hyaluronic acid was solubilised in sterilized PBS (1 mg/ml) during overnight under gentile shaking. The solution was pretreated with N-acetyl-Cysteine (NAC), RvD1, compounds I-1 and I-2 at 1 or 10 μM for 1 hour and then treated with 1 mM H2O2 during 4 hours. Samples were mixed in loading buffer containing 1M sucrose and loaded in 1% agarose/1× Tris-borate-EDTA (TBE) and pre-run the gel for 6 hours at 40V in 1× TBE buffer. The gel was then equilibrated with 30% ethanol in water and stained with Stains-All solution containing 0.1 mg Stains-All and 30% ethanol for overnight in the dark. Next, the gel was equilibrated in water for 1 hour and then exposed to light for destaining. Finally, hyaluronic acid was visualized using Alpha Imager under light transillumination. Results are shown in FIG. 4, where arrows show hyaluronic acid fragments (n=2), Al=I-1; A2=I-2.
This part of experiments was designed to investigate the ability of RvD1 analogues to protect hyaluronic acid against H2O2-induced degradation (antioxidant effect). To do so, the polymer at 1 mg/ml was pretreated by RvD1 and their analogues for 1 hour and then after treated with 1 mM H2O2 for 4 hours.

[2] = Ultraviolet-induced hyaluronic acid (HA) degradation; details: 1 μM, HA 1 mg/ml in PBS, UV for 4 hours (n=3)
Method: In order to study the protective effect of RvD1 and its analogs on the stability of hyaluronic acid (HA), a solution of commercial HA was prepared in PBS at a concentration of 1 mg/ml, then exposed to Ultraviolet rays (UV) for 4 hours in the presence or absence of RvD1 and compounds I-1 and I-2 at a dose of 1 μM. 20 μg of HA were loaded into an agarose gel (1% prepared in TBE buffer). After 4 hours of migration at 40 volts, the HA was visualized after staining with Stains-All dissolved in 30% ethanol.

[3] = tested on: COX-2; assay: COX-2 expression in human OA chondrocytes by Western blot; assay type: cell-based; details: 10 μM, 1 hour then IL-1β 1 ng/ml for 24 hours
Method: Cells were seeded in 24-well flat plates at a confluence of 5×10^5 cells per well in 10% FBS DMEM medium and incubated for 24 h at 37° C. Then, the cells were treated with I-1 at different doses (0-10 μM) for 1 hour followed by a second treatment with IL-1β for 24 hours (1 ng/ml). COX-2 expression was assessed by Western blot by specific anti-COX-2 antibody.

[4] = tested on: human OA chondrocytes; assay: Reactive oxygen species (ROS) production in human OA chondrocytes (DCFH-DA probe); assay type: cell-based; details: 1 μM, 0.5 mM H2O2 for 2 hours
Method: In a second step, the study was continued to explore the antioxidant effect of RvD1 and compounds I-1 and I-2 in a cell medium. Thus, human OA chondrocytes with osteoarthritis were seeded in black plates at a rate of 5×10^4 cells per well in 10% FBS DMEM medium (phenol red free) and incubated for 24 h at 37° C., and then treated with 0.5 mM H2O2 for 2 hours in the presence or absence of RvD1 and the compounds I-1 and I-2 at a concentration of 1 μM. The generation of ROS was measured by the addition of 10 μM of the DCFH-DA probe and fluorescence was measured using a microplate reader with Fluorescence Polarization (Polar Star Optima, BMG Labtech) set up at ex. 485 nm and em. 530 nm.

[5] = tested on: human monocyte-derived osteoclasts; assay: Hydroxyapatite matrix resorption by human monocyte-derived osteoclasts (von Kossa staining); assay type: cell-based; details: 500 nM, M-CSF/RANKL-differentiated cells, p<0.01 (n=3)
From the text: The effect of RvD1 analogs on the resorption activity of human monocyte-derived osteoclasts was investigated. Results were obtained as described in Benabdoun et al. 2019 and are shown in FIG. 10, where data were expressed as % resorption area/osteoclast with three nuclei or more (n=3).

[6] = tested on: Raw264.7 macrophages; assay: Cell viability (MTS) assay, cytotoxicity in Raw 264.7 macrophages; assay type: cell-based, mouse; details: Raw264.7 macrophages, 0, 0.1, 0.25, 0.5 and 1 μM, 24 h incubation
Method: Murine macrophage RAW 264.7 (ATCC, Manassas, VA, USA) were cultured with AMEM/10% FBS and antibiotics at 37° C. in a humidified atmosphere with 5% CO2. Primary human monocytes were isolated from whole blood obtained from healthy volunteers. Briefly, blood was centrifuged on a Ficoll-Paque density gradient, according to the manufacturer's recommendations. Isolated monocytes were then cultured in RPMI 1640 medium supplemented with 10% FBS, and antibiotics. All donors provided written, informed consent for the use of their blood for research purposes. Experimental protocols were approved by the Research Ethics Board of the “[…] du Sacré-Coeur de Montreal”. Raw264.7 cells were treated for 24 hours with increasing concentrations of compounds I-1 and I-2 (0, 0,1, 0,25, 0,5, and 1 μM). Cell viability was assessed with MTS assay kit (Promega Corporation, Madison, WI, USA), as described by the manufacturer. Absorbance was measured with the micro-ELISA Vmax photometer (Bio-Tek Instruments, Winooski, VT, USA). Cell viability was evaluated by 3-(4,5-dimethyl-thiazoyl)-2,5-diphenyl-SH-tetrazolium bromide assay. ANOVA test was performed to compare the results. Results are expressed as mean±SEM for n=3. This part of the experiment was designed to test the cytotoxic effect of compounds 1-1 and 1-2 on mouse Raw264.7 macrophages. […]

[7] = tested on: MMP-13; assay: Inhibition of MMP-13 production in human OA chondrocytes; assay type: cell-based; details: Chondrocyte, IL-1β 1 ng/ml one hour then compound 24 hours
Method: The effect of RvD1 analogs on the expression of MMP-13, a key enzyme involved in the degradation of OA cartilage, was investigated. Chondrocytes from human osteoarthritic cartilage were treated with IL-1β (1 ng/ml) for one hour followed by another treatment with RvD1 and its analogues for 24 hours.

[8] = tested on: human isolated monocytes/macrophages-RANKL/M-CSF-derived osteoclasts; assay: TRAP staining, osteoclast differentiation of RANKL/M-CSF-treated human monocytes; assay type: cell-based; details: 500 nM, 14 days, 50 ng/ml RANKL and 10 ng/ml M-CSF
Method: (§1) Murine macrophage RAW 264.7 (ATCC, Manassas, VA, USA) were cultured with AMEM/10% FBS and antibiotics at 37° C. in a humidified atmosphere with 5% CO2. Primary human monocytes were isolated from whole blood obtained from healthy volunteers. Briefly, blood was centrifuged on a Ficoll-Paque density gradient, according to the manufacturer's recommendations. Isolated monocytes were then cultured in RPMI 1640 medium supplemented with 10% FBS, and antibiotics. All donors provided written, informed consent for the use of their blood for research purposes. Experimental protocols were approved by the Research Ethics Board of the “Hôpital du Sacré-Coeur de Montreal”.
Isolated human monocytes were isolated as described previously, seeded in chambered cell culture slides at 8×10^4 cells/well, and treated with 50 ng/ml RANKL and 10 ng/ml M-CSF in the presence or absence of 500 nM of compounds I-1 and I-2 for 14 days. Culture medium was changed every 3 days. TRAP staining performed as recommended by the manufacturer. […] Results are shown in FIG. 3, where arrows show osteoclasts with three nuclei or more (b). R=RANKL; M=M-CSF.
Here, the impact of RvD1 analogues treatment on human isolated monocytes/macrophages-RANKL/M-CSF-derived osteoclasts was eveluated, by measuring their phenotypic markers, namely TRAP. […]

[9] = Reactive oxygen species (ROS) production in acellular environment (DCFH-DA probe); details: 1 μM, ROS generated with CuCl2 (1 mM) and H2O2 (1 mM) for 10 min
Method: ROS were generated by incubating in black 96-well plate with CuCl2 (1 mM) with H2O2 (1 mM) for 10 min. Subsequently, RvD1, I-1 and I-2 at 1 μM were added before the addition of the DCFH-DA probe.

[10] = tested on: TNFα; assay: Inhibition of IL-1β-induced TNFα production in Raw264.7; assay type: cell-based, mouse; details: Raw264.7, 1 μM, pretreated 1 h then 1 ng/ml IL-1β for 24 h, compared to IL-1β alone
Method: as §1
It is well-documented that the RvD1 is considered as a potent anti-inflammatory mediator. Thus, the purpose of this part of the present study was to investigate whether compounds I-1 and I-2's capacity to inhibit pro-inflammatory cytokines, such as TNFα. To do so, Raw264.7 were pretreated with compounds I-1 and I-2 at different concentrations (0, 0.1, 0.5, and 1-μM) for 1h, followed by exposure to 1 ng/ml IL-1β for 24 h. […] As such, it may be concluded that compounds I-1 and I-2 inhibit TNFα production.

[11] = tested on: osteoclasts from monocytes of peripheral blood of healthy donors; assay: Osteoclast recruitment: differentiation of peripheral blood monocytes into osteoclasts (TRAP-positive cells); assay type: cell-based, human; details: 500 ng, 14 days, 50 ng/ml RANKL + 10 ng/ml M-CSF, 2×10^5 monocytes/chamber (n=3)
Method: The effect of RvD1 analogs on the differentiation of macrophages into osteoclasts was investigated. Monocytes from peripheral blood of healthy donors were cultured in culture chambers at 2×10^5 monocytes/chamber in the presence of 50 ng/ml RANKL+10 ng/ml M-CSF for 14 days, in the presence or absence of 500 ng of compounds I-1 and I-2 (n=3).

[12] = tested on: COX-2; assay: COX-2 protein expression by Western blotting in Raw264.7 macrophages; assay type: cell-based, mouse; details: Raw264.7 macrophages, 0, 0.25, 0.5, 1 μM for 1 hour, then 1 ng/ml IL-1β for 24 hours (n=2)
Method: 20 μg of total proteins of Raw264.7 macrophages lysates, treated under the indicated conditions, were loaded for discontinuous 4-12% sodium dodecyl sulfate-polyacrylamide gel electrophoresis. They were then transferred electrophoretically onto nitrocellulose membranes (Bio-Rad Laboratories, Mississauga, ON, Canada) for protein immunodetection and semi-quantitative measurement. The primary antibodies deployed were rabbit anti-COX-2 (Cayman Chemical Company) and mouse anti-β-actine (Sigma). […] Immunoreactive proteins were detected with SuperSignal blotting substrate (Pierce, Rockford, IL) and exposed to Kodak X-Omat™ film (Eastman Kodak Company, Rochester, NY).
Here, the hypothesis whether RvD1 analogues have the ability to modulate COX-2 protein expression was tested. Raw264.7 macrophages were pretreated with increasing doses of compound I-2 (0, 0.25, 0.5, 1-μM) for 1 hour and treated then after with 1 ng/ml IL-1β for 24 hours.

Structure (SMILES): CCCCC[C@H](O)c1c(/C=C/[C@@H](O)[C@@H](O)C/C=C\CCC(=O)OC)nc(C)n1C [I-1, methyl (4Z,7S,8R,9E)-7,8-dihydroxy-10-(5-((S)-1-hydroxyhexyl)-1,2-dimethyl-1H-imidazol-4-yl)deca-4,9-dienoate]
- H2O2-induced hyaluronic acid fragmentation [1]: prevent H2O2-induced fragmentation
- HA degradation by UV exposure [2]: prevents HA degradation by UV exposure
- COX-2 expression [3]: reduces COX-2 expression
- generation of ROS by chondrocytes [4]: significantly reduced the generation of ROS
- erosion of the hydroxyapatite matrix (% resorption area/osteoclast) [5]: significantly reduced erosion of the hydroxyapatite matrix to almost control level
- cell viability [6]: did not alter the cell viability
- inhibition at 20 µM [7]: ~20%
- osteoclasts differentiation (TRAP) [8]: strongly prevent osteoclasts differentiation
- level of ROS in acellular medium [9]: level of ROS decreases
- reduction of TNFα level [10]: 40%
- formation of osteoclasts (3 or more nuclei) [11]: inhibited the formation of large osteoclasts

Structure (SMILES): CC/C=C\C[C@H](O)/C=C/C=C\C=C\C=C\[C@@H](O)[C@@H](O)C/C=C\CCC(=O)O [RvD1, 7S,8R,17S-trihydroxy-4Z,9E, 11E,13Z,15E,19Z-docosahexaenoic acid, reference compound]
- H2O2-induced hyaluronic acid fragmentation [1]: prevent H2O2-induced fragmentation
- HA degradation by UV exposure [2]: prevents HA degradation by UV exposure
- generation of ROS by chondrocytes [4]: significantly reduced the generation of ROS
- inhibition at 10 µM ([7]; 10 μM): ~20%
- level of ROS in acellular medium [9]: level of ROS decreases

Structure (SMILES): CCCCC[C@H](O)c1c(/C=C/[C@@H](O)[C@@H](O)C/C=C\CCC(=O)O)nc(C)n1C [I-2, (4Z,7S,8R,9E)-7,8-dihydroxy-10-(5-((S)-1-hydroxyhexyl)-1,2-dimethyl-1H-imidazol-4-yl)deca-4,9-dienoic acid]
- H2O2-induced hyaluronic acid fragmentation [1]: prevent H2O2-induced fragmentation
- HA degradation by UV exposure [2]: prevents HA degradation by UV exposure
- generation of ROS by chondrocytes [4]: significantly reduced the generation of ROS
- erosion of the hydroxyapatite matrix (% resorption area/osteoclast) [5]: significantly reduced erosion of the hydroxyapatite matrix to almost control level
- cell viability [6]: did not alter the cell viability
- inhibition at 20 µM [7]: ~20%
- osteoclasts differentiation (TRAP) [8]: strongly prevent osteoclasts differentiation
- IL-1β-induced COX-2 protein expression [12]: reduced IL-1β-induced COX-2 protein expression
- level of ROS in acellular medium [9]: level of ROS decreases
- reduction of TNFα level [10]: 40%
- formation of osteoclasts (3 or more nuclei) [11]: inhibited the formation of large osteoclasts
